According to PubChem BioAssay AID2060494 (Molecular Pharmacology Branch, DTP, NCI, 2025):
Several values for one entry are separate records, joined by “and”; a condition that tells them apart may be missing. Identical values can stand only once.

Test system: 435261-313-R-J1-PDC complex spheroid viability
Test: Anticancer human tumor 435261-313-R-J1-PDC patient-derived colon adenocarcinoma cell line growth inhibition [GQUAD]
Conditions: for viability, T/C: stronger effect = lower value
From the text: DNA G-quadruplex Stabilizer Agents in Combinations in Complex Spheroids
A high-throughput screen of multi-cell type tumor spheroids was designed to identify active combinations of DNA G-quadruplex stabilizer agents and targeted small molecules. Complex spheroids include a stromal component modeled by human endothelial cells (HUVEC) and fibroblasts modeled by human mesenchymal stem cells (MSCs). The concentration ranges selected for each drug and investigational agent were based upon clinically achievable concentrations if the clinical Cmax of the agent was known.
Compounds. The drugs and investigational agents: pidnarulex (CX-5461; NSC782164), APTO-253 (NSC789042), BRACO-19 (NSC847499), peposertib (NSC802822), ceralasertib (NSC780249), elimusertib (NSC800525), camonsertib (NSC841442), AZD-1390 (NSC803789), olaparib (NSC753686), talazoparib (NSC767125), ART-558 (NSC835418), sotorasib (NSC818433), MRTX-1133 (NSC836407), SN-38 (NSC673596), topotecan (NSC609699), etoposide (NSC141540), doxorubicin (NSC123127), gemcitabine (NSC613327), 5-fluorouracil (NSC19893), paclitaxel (NSC125973), vemurafenib (NSC761431), panobinostat (NSC761190), R-306465 (JNJ-16241199; NSC773264), adavosertib (NSC754352), TP-3654 (NSC805149), carboplatin (NSC241240), KSQ-4279 (NSC840948), and staurosporine (NSC755774) were obtained from the National Cancer Institute (NCI) Developmental Therapeutics Program Chemical Repository (34). The FDA-approved anticancer drug set is available from the NCI Developmental Therapeutics Program. […] The stock solutions were prepared in dimethyl sulfoxide (DMSO, Sigma-Aldrich, St. Louis, MO, cat. D2650) at 800-fold the tested concentration and stored at -70 degrees C prior to their use. All drugs and investigational agents were tested over a range starting from a high concentration at or near the clinical Cmax and decreasing in half-log increments. If the clinical Cmax for an agent had not been determined, the highest concentration tested was 10 microM.
2.3 Cell Culture. All cells were maintained in an incubator at 37 degrees C and 5% CO2 with 95% humidity. The PDC lines were cultured according to standard operating procedures established by the NCI PDMR. All PDCs were thawed and cultured in Matrigel-coated flasks prepared with a working solution of 1X Ham's F-12 nutrient mix, without supplementation (Invitrogen, cat. 11765054), 100 U/mL penicillin-streptomycin (Invitrogen, cat. 15140122), and 2.5% Matrigel (Corning Inc., cat. 354248) for the first three passages. The 857933-349-R-J2-PDC line was cultured in 6C/Colon 1B media, which includes advanced DMEM/F-12 (Thermo Fisher Scientific, cat. 12634028), 10 mM HEPES (Thermo Fisher Scientific, cat. 15630080), 1X GlutaMAX supplement (Thermo Fisher Scientific, cat. 35050061), 0.1 mg/mL primocin (InvivoGen, cat. ant-pm-2), 10% defined fetal bovine serum, heat inactivated (HyClone Laboratories Inc., cat. SH30070.03HI), 50% L-WRN conditioned media (ATCC, cat. CRL-3276), 1.25 mM N-Acetyl-L-cysteine (Sigma-Aldrich, cat. A9165), 10 mM nicotinamide (Sigma-Aldrich, cat. N0636), 1X B-27 supplement (Thermo Fisher Scientific, cat. 17504044), 1X N-2 supplement (Thermo Fisher Scientific, cat. 17502048), 10 microM Y-27632 dihydrochloride (Tocris Bioscience, cat. 1254), and 50 ng/mL human EGF recombinant protein (Thermo Fisher Scientific, cat. PHG0311). The 485176-168-R4-J1-PDC line was cultured in Panc media, which includes all 6C/Colon 1B media components plus 100 ng/mL human FGF-10 (Thermo Fisher Scientific, cat. 100-26), 500 nM SB-431542 (Selleckchem, cat. S1067), and gastrin (Tocris, cat. 3006).
[…]
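Also: spheroids exposed to the agents for seven days before readout.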
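For viability, T/C in this document: percent of vehicle control viability with DMSO wells as 100%.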

For `C#Cc1c(F)ccc2cc(O)cc(-c3ncc4c(N5CC6CCC(C5)N6)nc(OCC56CCCN5CC(F)C6)nc4c3F)c12` (centres undefined), the viability, T/C (compound 0.0316 µM) was 108% and 99.7% and 99.5%, the viability, T/C (compound 0.1 µM) was 99.8% and 93.3% and 92.1% and the viability, T/C (compound 0.316 µM) was 92.1% and 98.2% and 99.7%. The viability, T/C (compound 1 µM) was 80.9% and 54.3% and 80.5%, the viability, T/C (compound 3.16 µM) was 51.5% and 76.6% and 64.6% and the viability, T/C (compound 10 µM) was 57.3% and 53.5% and 39.1%. For the same molecule, the IC50 (curve of compound) was > 10 µM and 6.01 µM.
In the case of `C=CCn1c(=O)c2cnc(Nc3ccc(N4CCN(C)CC4)cc3)nc2n1-c1cccc(C(C)(C)O)n1`, the viability, T/C (compound 0.0316 µM) is reported as 86.6% and 93%, the viability, T/C (compound 0.1 µM) is reported as 114% and 97.5% and the viability, T/C (compound 0.316 µM) is reported as 94.4% and 87.1%. For the same molecule, the viability, T/C (compound 1 µM) was 74.3% and 105%, the viability, T/C (compound 3.16 µM) was 70.5% and 77.6% and the viability, T/C (compound 10 µM) was 57.6% and 47%. The IC50 (curve of compound) was > 10 µM and 8.92 µM.
`CC(=O)O[C@H]1C(=O)[C@@]2(C)[C@H]([C@H](OC(=O)c3ccccc3)[C@]3(O)C[C@H](OC(=O)[C@H](O)[C@@H](NC(=O)c4ccccc4)c4ccccc4)C(C)=C1C3(C)C)[C@]1(OC(C)=O)CO[C@@H]1C[C@@H]2O` was tested, and the viability, T/C (compound 0.0316 µM) was 92.9% and 82.9% and 90.8%, the viability, T/C (compound 0.1 µM) was 76.1% and 66.3% and 52.6% and the viability, T/C (compound 0.316 µM) was 68.9% and 81.9% and 51.9%. The viability, T/C (compound 1 µM) was 68.7% and 43.9% and 69.8%, the viability, T/C (compound 3.16 µM) was 68.5% and 44.5% and 67.8% and the viability, T/C (compound 10 µM) was 65.1% and 53.1% and 63.9%.
Work on `CC(C)(O)C1CCC(Nc2ccc3ncc(-c4cccc(C(F)(F)F)c4)n3n2)CC1` (centres undefined) yielded a viability, T/C (compound 0.0316 µM) of 60.2%, a viability, T/C (compound 0.1 µM) of 82% and a viability, T/C (compound 0.316 µM) of 82.5%. For the same molecule, the viability, T/C (compound 1 µM) was 36.3%, the viability, T/C (compound 3.16 µM) was 9.61% and the viability, T/C (compound 10 µM) was 12.9%. For the same molecule, the IC50 (curve of compound) was 0.665 µM.
With `CCCS(=O)(=O)Nc1ccc(F)c(C(=O)c2c[nH]c3ncc(-c4ccc(Cl)cc4)cc23)c1F` the viability, T/C (compound 0.0316 µM) was 105% and 95%, the viability, T/C (compound 0.1 µM) was 69.6% and 103% and the viability, T/C (compound 0.316 µM) was 118% and 139%. The viability, T/C (compound 1 µM) was 82.9% and 104%, the viability, T/C (compound 3.16 µM) was 63.1% and 88.8% and the viability, T/C (compound 10 µM) was 14.7% and 13.4%. The IC50 (curve of compound) was 4.25 µM and 5.71 µM.
With `CN(C)c1ccc(Nc2c3ccc(NC(=O)CCN4CCCC4)cc3nc3cc(NC(=O)CCN4CCCC4)ccc23)cc1` the viability, T/C (compound 3.16 µM) was 63.9% [middle of 11 runs] and the viability, T/C (compound 10 µM) was 41.3% [middle of 11 runs].
For `COc1ncnc(C2CC2)c1-c1ncc2cnn(Cc3ccc(-c4nc(C(F)(F)F)cn4C(C)C)cc3)c2n1`, the viability, T/C (compound 0.0316 µM) was 89.1% and 87.3%, the viability, T/C (compound 0.1 µM) was 75.2% and 70.5% and the viability, T/C (compound 0.316 µM) was 85.4% and 92.4%. The viability, T/C (compound 1 µM) was 113% and 83%, the viability, T/C (compound 3.16 µM) was 96.8% and 88.3% and the viability, T/C (compound 10 µM) was 84.5% and 65.8%. The IC50 (curve of compound) was greater than 10 µM.
For `O=C(NO)c1cnc(N2CCN(S(=O)(=O)c3ccc4ccccc4c3)CC2)nc1`, the viability, T/C (compound 0.0316 µM) was 97.4%, the viability, T/C (compound 0.1 µM) was 68.3% and the viability, T/C (compound 0.316 µM) was 52.4%. The viability, T/C (compound 1 µM) was 35.2%, the viability, T/C (compound 3.16 µM) was 0.38% and the viability, T/C (compound 10 µM) was 0.16%. The IC50 (curve of compound) was 0.318 µM.
`O=c1[nH]cc(F)c(=O)[nH]1` was tested, and the viability, T/C (compound 0.0316 µM) was 88.6% and 164% and 121%, the viability, T/C (compound 0.1 µM) was 71.2% and 82.5% and 101% and the viability, T/C (compound 0.316 µM) was 83% and 89.5% and 119%. For the same molecule, the viability, T/C (compound 1 µM) was 61.4% and 63.8% and 109%, the viability, T/C (compound 3.16 µM) was 63.2% and 95% and 99.5% and the viability, T/C (compound 10 µM) was 63.7% and 75% and 70.3%. The IC50 (curve of compound) was greater than 10 µM.
`CC1COCCN1c1cc(C2(S(C)(=N)=O)CC2)nc(-c2ccnc3[nH]ccc23)n1` (centres undefined) + CN(C)c1ccc(Nc2c3ccc(NC(=O)CCN4CCCC4)cc3nc3cc(NC(=O)CCN4CCCC4)ccc23)cc1 gave an IC50 (curve of first compound, second compound 0.0316 µM) greater than 10 µM, an IC50 (curve of first compound, second compound 0.1 µM) greater than 10 µM and an IC50 (curve of first compound, second compound 0.316 µM) greater than 10 µM. It also gave an IC50 (curve of first compound, second compound 1 µM) greater than 10 µM, an IC50 (curve of first compound, second compound 3.16 µM) greater than 10 µM and an IC50 (curve of first compound, second compound 10 µM) of 0.0883 µM. It also gave a viability, T/C (second compound 0.0316 µM, first compound 0.0316 µM) of 153%, a viability, T/C (second compound 0.0316 µM, first compound 0.1 µM) of 99.2% and a viability, T/C (second compound 0.0316 µM, first compound 0.316 µM) of 71.8%. For the same molecule, the viability, T/C (second compound 0.0316 µM, first compound 1 µM) was 98%, the viability, T/C (second compound 0.0316 µM, first compound 3.16 µM) was 69.2% and the viability, T/C (second compound 0.0316 µM, first compound 10 µM) was 70.7%. The viability, T/C (second compound 0.1 µM, first compound 0.0316 µM) was 88.2%, the viability, T/C (second compound 0.1 µM, first compound 0.1 µM) was 96.2% and the viability, T/C (second compound 0.1 µM, first compound 0.316 µM) was 106%. It also gave a viability, T/C (second compound 0.1 µM, first compound 1 µM) of 79.1%, a viability, T/C (second compound 0.1 µM, first compound 3.16 µM) of 76.7% and a viability, T/C (second compound 0.1 µM, first compound 10 µM) of 51.8%. The viability, T/C (second compound 0.316 µM, first compound 0.0316 µM) was 89.4%, the viability, T/C (second compound 0.316 µM, first compound 0.1 µM) was 101% and the viability, T/C (second compound 0.316 µM, first compound 0.316 µM) was 89.8%. It also gave a viability, T/C (second compound 0.316 µM, first compound 1 µM) of 68.6%, a viability, T/C (second compound 0.316 µM, first compound 3.16 µM) of 64.6% and a viability, T/C (second compound 0.316 µM, first compound 10 µM) of 53.7%. The viability, T/C (second compound 1 µM, first compound 0.0316 µM) was 109%, the viability, T/C (second compound 1 µM, first compound 0.1 µM) was 115% and the viability, T/C (second compound 1 µM, first compound 0.316 µM) was 87.6%. It also gave a viability, T/C (second compound 1 µM, first compound 1 µM) of 81.4%, a viability, T/C (second compound 1 µM, first compound 3.16 µM) of 79% and a viability, T/C (second compound 1 µM, first compound 10 µM) of 51.2%. For the same molecule, the viability, T/C (second compound 3.16 µM, first compound 0.0316 µM) was 61.1%, the viability, T/C (second compound 3.16 µM, first compound 0.1 µM) was 55.8% and the viability, T/C (second compound 3.16 µM, first compound 0.316 µM) was 68.3%. For the same molecule, the viability, T/C (second compound 3.16 µM, first compound 1 µM) was 76.2%, the viability, T/C (second compound 3.16 µM, first compound 3.16 µM) was 50.6% and the viability, T/C (second compound 3.16 µM, first compound 10 µM) was 45.3%. For the same molecule, the viability, T/C (second compound 10 µM, first compound 0.0316 µM) was 55.3%, the viability, T/C (second compound 10 µM, first compound 0.1 µM) was 50.3% and the viability, T/C (second compound 10 µM, first compound 0.316 µM) was 32.9%. The viability, T/C (second compound 10 µM, first compound 1 µM) was 23.8%, the viability, T/C (second compound 10 µM, first compound 3.16 µM) was 22.6% and the viability, T/C (second compound 10 µM, first compound 10 µM) was 17%.
